# Measured values taken from ChEMBL document CHEMBL3045368, “Design, synthesis, and biological activities of novel 2-cyanoacrylates containing oxazole, oxadiazole, or quinoline moieties” (2009).
# Experiments:
# Assay type in all cases: functional
# Brassica napus [1] = assay: Herbicidal activity against Brassica napus (oilseed rape) assessed as inhibition of herb growth at 1.5 kg/ha during preemergence treatment protocol; details: pre-emergence, read-out: GI
# Amaranthus retroflexus [2] = assay: Herbicidal activity against Amaranthus retroflexus assessed as inhibition of herb growth at 1.5 kg/ha during preemergence treatment protocol; details: pre-emergence, read-out: GI
# Digitaria sanguinalis [3] = assay: Herbicidal activity against hairy Digitaria sanguinalis (hairy crabgrass) assessed as inhibition of herb growth at 1.5 kg/ha during postemergence treatment protocol; details: post-emergence, read-out: GI
# Medicago sativa [4] = assay: Herbicidal activity against Medicago sativa (alfalfa) assessed as inhibition of herb growth at 1.5 kg/ha during postemergence treatment protocol; details: post-emergence, read-out: GI
# Brassica napus [5] = assay: Herbicidal activity against Brassica napus (oilseed rape) assessed as inhibition of herb growth at 1.5 kg/ha during postemergence treatment protocol; details: post-emergence, read-out: GI
# Amaranthus retroflexus [6] = assay: Herbicidal activity against Amaranthus retroflexus assessed as inhibition of herb growth at 1.5 kg/ha during postemergence treatment protocol; details: post-emergence, read-out: GI
# Cucumis sativus = assay: Plant growth regulatory activity in Cucumis sativus (cucumber) seeds assessed as stimulation of radicle growth level at 10 mg/mL
# Digitaria sanguinalis [7] = assay: Herbicidal activity against hairy Digitaria sanguinalis (hairy crabgrass) assessed as inhibition of herb growth at 1.5 kg/ha during preemergence treatment protocol; details: pre-emergence, read-out: GI
# Medicago sativa [8] = assay: Herbicidal activity against Medicago sativa (alfalfa) assessed as inhibition of herb growth at 1.5 kg/ha during preemergence treatment protocol; details: pre-emergence, read-out: GI
structure (smiles),measurement,setting,value
CCOCCOC(=O)/C(C#N)=C(\NCc1ccc2ccccc2n1)C(C)C,inhibition of growth at 1500 g/ha,Brassica napus [1],0%
same,inhibition of growth at 1500 g/ha,Amaranthus retroflexus [2],0%
same,inhibition of growth at 1500 g/ha,Digitaria sanguinalis [3],50.6%
same,inhibition of growth at 1500 g/ha,Medicago sativa [4],0%
same,inhibition of growth at 1500 g/ha,Brassica napus [5],72%
same,inhibition of growth at 1500 g/ha,Amaranthus retroflexus [6],77.8%
same,Activity,Cucumis sativus,115%
same,inhibition of growth at 1500 g/ha,Digitaria sanguinalis [7],0%
same,inhibition of growth at 1500 g/ha,Medicago sativa [8],0%
CCOCCOC(=O)/C(C#N)=C(\NCc1ccc2ncccc2c1)SC,inhibition of growth at 1500 g/ha,Brassica napus [1],10%
same,inhibition of growth at 1500 g/ha,Amaranthus retroflexus [2],0%
same,inhibition of growth at 1500 g/ha,Digitaria sanguinalis [3],66.2%
same,inhibition of growth at 1500 g/ha,Medicago sativa [4],0%
same,inhibition of growth at 1500 g/ha,Brassica napus [5],100%
same,inhibition of growth at 1500 g/ha,Amaranthus retroflexus [6],100%
same,Activity,Cucumis sativus,145%
same,inhibition of growth at 1500 g/ha,Digitaria sanguinalis [7],10%
same,inhibition of growth at 1500 g/ha,Medicago sativa [8],0%
CCOCCOC(=O)/C(C#N)=C(\NCc1ccc2ncccc2c1)C(C)C,inhibition of growth at 1500 g/ha,Brassica napus [1],0%
same,inhibition of growth at 1500 g/ha,Amaranthus retroflexus [2],0%
same,inhibition of growth at 1500 g/ha,Digitaria sanguinalis [3],0%
same,inhibition of growth at 1500 g/ha,Medicago sativa [4],10%
same,inhibition of growth at 1500 g/ha,Brassica napus [5],73.7%
same,inhibition of growth at 1500 g/ha,Amaranthus retroflexus [6],0%
same,Activity,Cucumis sativus,85%
same,inhibition of growth at 1500 g/ha,Digitaria sanguinalis [7],0%
same,inhibition of growth at 1500 g/ha,Medicago sativa [8],0%
CCOCCOC(=O)/C(C#N)=C(\NCc1cnc2ccccc2c1)C(C)C,inhibition of growth at 1500 g/ha,Brassica napus [1],18.2%
same,inhibition of growth at 1500 g/ha,Amaranthus retroflexus [2],41.9%
same,inhibition of growth at 1500 g/ha,Digitaria sanguinalis [3],45.5%
same,inhibition of growth at 1500 g/ha,Medicago sativa [4],0%
same,inhibition of growth at 1500 g/ha,Brassica napus [5],100%
same,inhibition of growth at 1500 g/ha,Amaranthus retroflexus [6],100%
same,Activity,Cucumis sativus,85%
same,inhibition of growth at 1500 g/ha,Digitaria sanguinalis [7],0%
same,inhibition of growth at 1500 g/ha,Medicago sativa [8],0%
CCOCCOC(=O)/C(C#N)=C(\NCc1cnc2ccccc2c1)SC,inhibition of growth at 1500 g/ha,Brassica napus [1],74.9%
same,inhibition of growth at 1500 g/ha,Amaranthus retroflexus [2],35.5%
same,inhibition of growth at 1500 g/ha,Digitaria sanguinalis [3],48.1%
same,inhibition of growth at 1500 g/ha,Medicago sativa [4],67.8%
same,inhibition of growth at 1500 g/ha,Brassica napus [5],100%
same,inhibition of growth at 1500 g/ha,Amaranthus retroflexus [6],100%
same,Activity,Cucumis sativus,110%
same,inhibition of growth at 1500 g/ha,Digitaria sanguinalis [7],0%
same,inhibition of growth at 1500 g/ha,Medicago sativa [8],10%
CCOCCOC(=O)/C(C#N)=C(\NCc1coc(-c2ccccc2)n1)SC,inhibition of growth at 1500 g/ha,Brassica napus [1],5%
same,inhibition of growth at 1500 g/ha,Amaranthus retroflexus [2],5%
same,inhibition of growth at 1500 g/ha,Digitaria sanguinalis [3],0%
same,inhibition of growth at 1500 g/ha,Medicago sativa [4],0%
same,inhibition of growth at 1500 g/ha,Brassica napus [5],34.7%
same,inhibition of growth at 1500 g/ha,Amaranthus retroflexus [6],0%
same,Activity,Cucumis sativus,50%
same,inhibition of growth at 1500 g/ha,Digitaria sanguinalis [7],0%
same,inhibition of growth at 1500 g/ha,Medicago sativa [8],5%
CCOCCOC(=O)/C(C#N)=C(\NCc1coc(-c2ccccc2)n1)C(C)C,inhibition of growth at 1500 g/ha,Brassica napus [1],0%
same,inhibition of growth at 1500 g/ha,Amaranthus retroflexus [2],10%
same,inhibition of growth at 1500 g/ha,Digitaria sanguinalis [3],87%
same,inhibition of growth at 1500 g/ha,Medicago sativa [4],0%
same,inhibition of growth at 1500 g/ha,Brassica napus [5],87.3%
same,inhibition of growth at 1500 g/ha,Amaranthus retroflexus [6],71.4%
same,Activity,Cucumis sativus,60%
same,inhibition of growth at 1500 g/ha,Digitaria sanguinalis [7],5%
same,inhibition of growth at 1500 g/ha,Medicago sativa [8],0%
CCOCCOC(=O)/C(C#N)=C(\NCc1coc(-c2cccc(Cl)c2)n1)SC,inhibition of growth at 1500 g/ha,Brassica napus [1],0%
same,inhibition of growth at 1500 g/ha,Amaranthus retroflexus [2],0%
same,inhibition of growth at 1500 g/ha,Digitaria sanguinalis [3],6.5%
same,inhibition of growth at 1500 g/ha,Medicago sativa [4],0%
same,inhibition of growth at 1500 g/ha,Brassica napus [5],25.4%
same,inhibition of growth at 1500 g/ha,Amaranthus retroflexus [6],0%
same,Activity,Cucumis sativus,80%
same,inhibition of growth at 1500 g/ha,Digitaria sanguinalis [7],0%
same,inhibition of growth at 1500 g/ha,Medicago sativa [8],10%
CCOCCOC(=O)/C(C#N)=C(\NCc1coc(-c2cccc(Cl)c2)n1)C(C)C,inhibition of growth at 1500 g/ha,Brassica napus [1],15%
same,inhibition of growth at 1500 g/ha,Amaranthus retroflexus [2],0%
same,inhibition of growth at 1500 g/ha,Digitaria sanguinalis [3],0%
same,inhibition of growth at 1500 g/ha,Medicago sativa [4],0%
same,inhibition of growth at 1500 g/ha,Brassica napus [5],80.5%
same,inhibition of growth at 1500 g/ha,Amaranthus retroflexus [6],84.1%
same,inhibition of growth at 1500 g/ha,Digitaria sanguinalis [7],0%
same,inhibition of growth at 1500 g/ha,Medicago sativa [8],5%
